For assay [1], the system named is HCT-116. Briefly: cells. Particulars: Homo sapiens.
Assay [2] relates to A-375. Briefly: cells. Particulars: Homo sapiens.
Assay [3] addresses RAF proto-oncogene serine/threonine-protein kinase (Homo sapiens, UniProt P04049). Briefly: Inhibition of C-Raf.

SMILES strings stand for the structures. Bounds are passed on as bounds.

In ChEMBL document CHEMBL2169832, “Conformation-specific effects of Raf kinase inhibitors” (J Med Chem, 2012) one finds IC50 and Ki data, which are given here for 5 compounds.

As a reminder, the IC50 is the point on the concentration scale where inhibition reaches its midpoint. Read a high IC50 as a need for much substance. As a reminder, the Ki is the dissociation constant of the complex between target and ligand, obtained from inhibition or displacement. Read a high Ki as lower affinity.

Sequence of RAF proto-oncogene serine/threonine-protein kinase (P04049 whole entry): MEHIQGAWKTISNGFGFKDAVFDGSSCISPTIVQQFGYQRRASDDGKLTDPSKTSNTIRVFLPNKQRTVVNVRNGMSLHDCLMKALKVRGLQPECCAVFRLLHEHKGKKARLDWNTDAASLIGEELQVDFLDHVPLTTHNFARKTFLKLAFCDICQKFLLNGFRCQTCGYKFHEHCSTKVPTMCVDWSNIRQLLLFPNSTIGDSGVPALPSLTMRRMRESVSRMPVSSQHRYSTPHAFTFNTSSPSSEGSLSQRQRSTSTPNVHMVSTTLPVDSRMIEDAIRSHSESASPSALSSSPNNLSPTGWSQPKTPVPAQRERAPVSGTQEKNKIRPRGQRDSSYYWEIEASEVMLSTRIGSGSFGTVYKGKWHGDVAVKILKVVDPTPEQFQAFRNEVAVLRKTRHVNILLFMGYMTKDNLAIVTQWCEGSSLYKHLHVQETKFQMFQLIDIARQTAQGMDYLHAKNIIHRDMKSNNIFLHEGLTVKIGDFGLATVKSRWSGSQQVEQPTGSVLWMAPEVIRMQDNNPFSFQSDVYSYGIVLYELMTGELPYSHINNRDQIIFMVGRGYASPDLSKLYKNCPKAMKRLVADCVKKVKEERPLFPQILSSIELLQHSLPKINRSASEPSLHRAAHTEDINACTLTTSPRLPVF

Regarding `Cc1ccc2c(Nc3ccc(Cl)cc3)nccc2c1Nc1ncccc1-c1ncnc2[nH]cnc12`, the IC50 in assay [1] stood at 720 nM; in assay [2] it was 310 nM. Further, in assay [3], the inhibition constant (Ki) amounted to 0.3 nM.

As to `OCCn1cc(-c2ccc3c(c2)CC/C3=N\O)c(-c2ccncc2)n1`, the IC50 in assay [1] was over 20000 nM; in assay [2], under 500 nM.

On to `CCCS(=O)(=O)Nc1ccc(F)c(C(=O)c2c[nH]c3ncc(Cl)cc23)c1F` [PLX-4720], for which the results for the half-inhibitory concentration (IC50) in assay [1] and in assay [2] were 27000 nM and 500 nM, respectively.

For `CN(C)CCOc1ccc(-c2nc(-c3ccncc3)c(-c3ccc4c(c3)CC/C4=N\O)[nH]2)cc1` [SB590885], the 50% inhibitory concentration (IC50) turned out to be 4600 nM in assay [1] and 370 nM in assay [2].

On to `CNC(=O)c1cc(Oc2ccc(NC(=O)Nc3ccc(Cl)c(C(F)(F)F)c3)cc2)ccn1` [SORAFENIB], for which the IC50 in assay [1] was found to be 2000 nM; in assay [2] it was 2400 nM.
